One experiment has as its target T1, MMP-2 (Homo sapiens, UniProt P08253).
T1 construct: made in house; host or cells: MMP-2-transfected p2AHT2 cells
T1 sequence (P08253 110-660): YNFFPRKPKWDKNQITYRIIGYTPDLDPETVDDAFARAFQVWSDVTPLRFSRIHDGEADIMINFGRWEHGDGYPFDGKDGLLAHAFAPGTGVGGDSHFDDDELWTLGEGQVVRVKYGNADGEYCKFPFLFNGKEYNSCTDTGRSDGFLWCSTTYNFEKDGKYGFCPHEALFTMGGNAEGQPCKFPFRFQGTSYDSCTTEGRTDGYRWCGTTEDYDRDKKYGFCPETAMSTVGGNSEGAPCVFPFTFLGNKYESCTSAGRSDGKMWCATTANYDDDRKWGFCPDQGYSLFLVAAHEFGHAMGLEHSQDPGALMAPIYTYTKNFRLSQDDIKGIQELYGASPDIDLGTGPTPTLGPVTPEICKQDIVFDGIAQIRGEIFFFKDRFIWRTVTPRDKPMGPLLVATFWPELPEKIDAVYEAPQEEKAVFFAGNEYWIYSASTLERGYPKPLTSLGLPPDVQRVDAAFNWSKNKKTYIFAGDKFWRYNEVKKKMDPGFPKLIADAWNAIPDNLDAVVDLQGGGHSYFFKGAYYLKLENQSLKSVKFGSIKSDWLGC
As to the kind of experiment: In vitro MMP inhibition, Ki determination (fluorogenic substrate II). To be noted: value outside parentheses; read-out: MMP-2 Ki. The class given is biochemical.

The next experiment concerns the target T2, MMP-13 (Homo sapiens, UniProt P45452).
T2 construct: made in house; host or cells: baculovirus / insect cells
The experiment is described as above. The class given is biochemical. To be noted: value outside parentheses; read-out: MMP-13 Ki. The procedure, abridged: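 Ki determined with human recombinant MMP-13, baculovirus-expressed as proenzyme and activated with APMA. Fluorogenic MCA/Dpa substrate II at 4 μM (at or below Km) with low enzyme in Tris buffer pH 7.5 with CaCl2. Incubation was 1 h at room temperature, with fluorescence read at 330/420 nm.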

Where “and” joins values, the source holds several entries; their conditions need not be identical. Equal values may be shown once.

With `CCc1ccc(C2CCN(S(=O)(=O)C3(C(=O)NO)CCN(CCOC)CC3)CC2)s1` [Example 314], the Ki (usually a dissociation constant, usually derived from enzyme kinetics or from competition with a known ligand) on MMP-2 was 9.1 nM; on MMP-13, 19.6 nM.
Consider `O=C(NO)C1(S(=O)(=O)N2CCC(N3CCN(c4ccc(Cl)cc4)CC3)CC2)CCOCC1` [Example 315], for which the Ki was 1820 nM at MMP-2 and 420 nM at MMP-13.
Consider `O=C(NO)C1(S(=O)(=O)N2CCN(c3ccc(-c4ccc(F)cc4F)cn3)CC2)CCOCC1` [Example 316], for which the Ki on MMP-2 worked out at 0.73 nM; at MMP-13, 0.77 nM.
Regarding `O=C(NO)C1(S(=O)(=O)N2CCN(c3ccc(-c4ccccc4F)cn3)CC2)CCOCC1` [Example 317], the Ki on MMP-2 is 0.55 nM; at MMP-13 it was 0.71 nM.
On to `COc1ccccc1-c1ccc(N2CCN(S(=O)(=O)C3(C(=O)NO)CCOCC3)CC2)nc1` [Example 318], for which the Ki at MMP-2 turned out to be 79 nM; on MMP-13, 62.3 nM.
On to `O=C(NO)C1(S(=O)(=O)N2CCN(c3ccc(-c4cccc(OC(F)(F)F)c4)cn3)CC2)CCOCC1` [Example 319], for which the Ki was found to be 33.1 nM on MMP-2 and 4.62 nM on MMP-13.
Consider `O=C(NO)C1(S(=O)(=O)N2CCN(c3ccc(CCCC(F)(F)F)cc3)CC2)CCOCC1` [Example 320], for which the results for the Ki at MMP-2 and at MMP-13 were 0.842 nM and 0.501 nM, respectively.
`O=C(NO)C1(S(=O)(=O)N2CCN(c3cnn(CCCC(F)(F)F)c(=O)c3)CC2)CCOCC1` [Example 321]: the inhibition constant (Ki) on MMP-2 and at MMP-13 was over 10000 nM throughout.
Take `O=C(NO)C1(S(=O)(=O)N2CCN(c3cnn(-c4ccccc4)c(=O)c3)CC2)CCOCC1` [Example 322]: the Ki on MMP-2 is 7870 nM; at MMP-13, over 10000 nM.
Turning to `CCCCc1ccc(C2CCN(S(=O)(=O)C3(C(=O)NO)CCOCC3)CC2)nc1` [Example 323], the Ki on MMP-2 came to 0.5 nM; at MMP-13 it was 0.65 nM.
For `COC(=O)c1ccc(N2CCN(S(=O)(=O)C3(C(=O)NO)CCOCC3)CC2)cc1` [Example 324], the Ki on MMP-2 turned out to be 1.22 nM; on MMP-13 it was 3.55 nM.
With `CCCCOc1ccc(N2CCN(S(=O)(=O)C3(C(=O)NO)CCN(CCOC)CC3)CC2)nc1` [Example 325], the Ki on MMP-2 came out at 0.18 nM; on MMP-13 it was 0.09 nM.
In the case of `O=C(NO)C1(S(=O)(=O)N2CCN(c3ccc(OCC(F)(F)C(F)F)cc3)CC2)CCOCC1` [Example 326], the figures for the Ki at MMP-2 and on MMP-13 were 0.34 nM and 0.31 nM, respectively.
The matching figures for `O=C(NO)C1(S(=O)(=O)N2CCN(c3ccc(-c4ccc(OC(F)(F)F)cc4)cc3)CC2)CCOCC1` [Example 327]: 0.97 nM and 0.499 nM.
For `O=C(NO)C1(S(=O)(=O)N2CCN(c3ccc(-c4ccc(Cl)c(Cl)c4)cc3)CC2)CCOCC1` [Example 328], the Ki at MMP-2 amounted to 3.58 nM; on MMP-13 it was 0.71 nM.
In the case of `O=C(NO)C1(S(=O)(=O)N2CCN(c3cnn(-c4ccccc4)c(=O)c3Cl)CC2)CCOCC1` [Example 329], the Ki at MMP-2 and at MMP-13 was over 10000 nM each time.
Consider `O=C(NO)C1(S(=O)(=O)N2CCC(c3ccc(OCC(F)(F)C(F)(F)F)cc3)CC2)CCOCC1` [Example 330], for which the figures for the Ki at MMP-2 and on MMP-13 were 1.18 nM and 0.92 nM, respectively.
`O=C(NO)C1(S(=O)(=O)N2CCN(c3ccc(Br)cn3)CC2)CCOCC1` [Example 331]: the Ki on MMP-2 was determined as 0.103 nM; on MMP-13, 0.193 nM.
The matching figures for `COCCN1CCC(C(=O)NO)(S(=O)(=O)N2CCN(c3ncccn3)CC2)CC1` [Example 332]: 190 nM and 28.2 nM.
Turning to `O=C(NO)C1(S(=O)(=O)N2CCN(c3ccc(OCC4CC4)c(F)c3)CC2)CCOCC1` [Example 333], the Ki on MMP-2 worked out at 0.58 nM; on MMP-13, 1.12 nM.
Consider `CCCCc1cnc(N2CCN(S(=O)(=O)C3(C(=O)NO)CCN(CCOC)CC3)CC2)nc1` [Example 334], for which the Ki on MMP-2 is 5.99 nM; on MMP-13, 2.75 nM.
For the compound `O=C(NO)C1(S(=O)(=O)N2CCN(c3ccc(CCC(F)(F)C(F)(F)F)cc3)CC2)CCN(C2CC2)CC1` [Example 335], the Ki was found to be 0.618 nM on MMP-2 and 0.489 nM at MMP-13.
Taken in the same sequence, the figures for `O=C(NO)C1(S(=O)(=O)N2CCN(c3ccc(OCC(F)(F)C(F)F)cc3)CC2)CCOCC1` [Example 336] were 0.606 nM and 0.522 nM.
The matching figures for `O=C(NO)C1(S(=O)(=O)N2CCC(c3ccc(OC(F)(F)C(F)F)cc3)CC2)CCOCC1` [Example 337]: 0.427 nM and 0.708 nM.
As to `O=C(NO)C1(S(=O)(=O)N2CCC(c3ccc(CCCC(F)(F)F)cn3)CC2)CCOCC1` [Example 338], the Ki is 1.09 nM on MMP-2 and 0.302 nM at MMP-13.
Consider `O=C(NO)C1(S(=O)(=O)N2CCC(c3ccc(CCC(F)(F)C(F)(F)F)cn3)CC2)CCOCC1` [Example 340], for which the Ki amounted to 0.26 nM at MMP-2 and 0.107 nM at MMP-13.
Consider `CCN1CCC(C(=O)NO)(S(=O)(=O)N2CCN(c3ccc(-c4ccccc4)c(F)c3)CC2)CC1` [Example 341], for which the Ki was 0.829 nM on MMP-2 and 2.59 nM at MMP-13.
Regarding `O=C(NO)C1(S(=O)(=O)N2CCN(c3ccc(OCCCC(F)(F)F)cc3)CC2)CC(O)C1` (centres unmarked) [Example 342], the values for the Ki on MMP-2 and on MMP-13 were 16.9 nM and 3.89 nM, respectively.
As to `O=C(NO)C1(S(=O)(=O)N2CCN(c3ncc(-c4ccc(Cl)cc4)s3)CC2)CCOCC1` [Example 343], the Ki at MMP-2 amounted to 0.113 nM; on MMP-13, 0.167 nM.
Taken in the same sequence, the figures for `Cc1ccc(-c2cnc(N3CCN(S(=O)(=O)C4(C(=O)NO)CCOCC4)CC3)s2)cc1` [Example 344] were 0.177 nM and 0.267 nM.
Turning to `O=C(NO)C1(S(=O)(=O)N2CCN(c3ncc(-c4ccc(F)cc4)s3)CC2)CCOCC1` [Example 345], the results for the inhibitory constant (Ki) at MMP-2 and on MMP-13 were 0.169 nM and 0.236 nM, respectively.
`O=C(NO)C1(S(=O)(=O)N2CCN(c3ncc(-c4ccc(C(F)(F)F)cc4)s3)CC2)CCOCC1` [Example 346]: the Ki at MMP-2 came to 0.215 nM; at MMP-13 it was 0.167 nM.
For the compound `CC(C)(C)c1ccc(-c2cnc(N3CCN(S(=O)(=O)C4(C(=O)NO)CCOCC4)CC3)s2)cc1` [Example 347], the values for the Ki at MMP-2 and on MMP-13 were 8.57 nM and 1.48 nM, respectively.
`Cc1ccccc1-c1cnc(N2CCN(S(=O)(=O)C3(C(=O)NO)CCOCC3)CC2)s1` [Example 348]: the Ki at MMP-2 amounted to 4.61 nM; at MMP-13, 2.99 nM.
For the compound `O=C(NO)C1(S(=O)(=O)N2CCC(c3ccc(OC(F)(F)C(F)(F)F)cc3)CC2)CCOCC1` [Example 349], the Ki on MMP-2 was 2.12 nM; at MMP-13, 5.08 nM.
Taken in the same sequence, the figures for `O=C(NO)C1(S(=O)(=O)N2CCC(c3ccc(OCC(F)(F)C(F)F)cc3)CC2)CCN(C2CC2)CC1` [Example 350] were 0.891 nM and 0.523 nM.
For `O=C(NO)C1(S(=O)(=O)N2CCC(c3ccc(CCCC(F)(F)F)cc3)CC2)CCN(C2CC2)CC1` [Example 351], the values for the Ki at MMP-2 and on MMP-13 were 1.26 nM and 0.359 nM, respectively.
Regarding `O=C(O)c1ccc(N2CCN(S(=O)(=O)C3(C(=O)NO)CCOCC3)CC2)cc1` [Example 352], the Ki on MMP-2 turned out to be 2130 nM; on MMP-13 it was 3640 nM.
Regarding `O=C(NO)C1(S(=O)(=O)N2CCC(c3ccc(CCCC(F)(F)F)cc3)CC2)CCOCC1` [Example 353], the values for the Ki on MMP-2 and on MMP-13 were 1.29 nM and 0.378 nM, respectively.
As to `CCCCOc1cccc(N2CCN(S(=O)(=O)C3(C(=O)NO)CCOCC3)CC2)c1` [Example 354], the values for the Ki on MMP-2 and on MMP-13 were 89.4 nM and 165 nM, respectively.
As for `O=C(NO)C1(S(=O)(=O)N2CCN(c3cccc(OCCCC(F)(F)F)c3)CC2)CCOCC1` [Example 355], the values for the Ki on MMP-2 and at MMP-13 were 38.3 nM and 51.1 nM, respectively.
The matching figures for `CCCCCc1cccc(N2CCN(S(=O)(=O)C3(C(=O)NO)CCOCC3)CC2)c1` [Example 356]: 65.7 nM and 35.3 nM.
The matching figures for `O=C(NO)C1(S(=O)(=O)N2CCC(c3ccc(OCC(F)(F)F)cc3)CC2)CCOCC1` [Example 357]: 0.919 nM and 1.2 nM.
Consider `O=C(NO)C1(S(=O)(=O)N2CCN(c3ccc(CCCC(F)(F)F)cn3)CC2)CCOCC1` [Example 358], for which the figures for the Ki on MMP-2 and at MMP-13 were 0.281 nM and 0.15 nM, respectively.
For `O=C(NO)C1(S(=O)(=O)N2CCN(c3ncc(-c4ccc(F)cc4F)s3)CC2)CCOCC1` [Example 359], the Ki was found to be 0.266 nM at MMP-2 and 0.439 nM at MMP-13.
For `O=C(NO)C1(S(=O)(=O)N2CCN(c3ncc(-c4ccc(-c5ccccc5)cc4)s3)CC2)CCOCC1` [Example 360], the Ki on MMP-2 came out at 0.395 nM; on MMP-13, 0.426 nM.
On to `O=C(NO)C1(S(=O)(=O)N2CCN(c3ncc(/C=C/c4ccccc4)s3)CC2)CCOCC1` [Example 361], for which the Ki is 1.37 nM and 1.39 nM at MMP-2; 1.06 nM and 1.07 nM at MMP-13.
Consider `O=C(NO)C1(S(=O)(=O)N2CCN(c3ncc(-c4ccc5c(c4)OCO5)s3)CC2)CCOCC1` [Example 362], for which the Ki on MMP-2 amounted to 0.333 nM; on MMP-13 it was 0.408 nM.
The matching figures for `O=C(NO)C1(S(=O)(=O)N2CCN(c3ncc(-c4ccc([N+](=O)[O-])cc4)s3)CC2)CCOCC1` [Example 363]: 0.056 nM and 0.076 nM.
